The nature of series [1]: Chromatographic LogD7.4. Particulars: pH 7.4; for chromatographic logD: gradient HPLC, Phenomenex Synergi Hydro-RP column; for gLogD7.4: chromatographically determined. In kind it is physicochemical.
The nature of series [2]: In vitro intrinsic clearance in human liver microsomes. Particulars: human, liver microsomes, h CLint. In kind it is in vitro ADME. (Liver microsomes are a subcellular fraction often used to study metabolism.)
The nature of series [3]: In vitro intrinsic clearance in mouse liver microsomes. In kind it is in vitro ADME.
Series [4] concerns Chloroquine-sensitive NF54 P. falciparum isolate. The series can be described thus: In vitro antiplasmodial activity, NF54. In kind it is cell-based, Plasmodium falciparum. Particulars: for IC50: Plasmodium falciparum, NF54, read-out: P. falciparum IC50, NF54, mean from n ≥ 2; for fold less potent than 2 (antiplasmodial): relative to compound 2.

On to `NC(=O)c1ccc2c(c1)C(=O)CCc1ccccc1C(=O)N2` [Compound 20, 6,13-Dioxo-6,11,12,13-tetrahydro-5H-dibenzo[b,g]-azonine-2-carboxamide], for which the chromatographic logD in series [1] came to 0.8. Besides, the microsomal CLint in series [2] is less than 7 µL/min/mg; in series [3], 10 µL/min/mg. The 50% inhibitory concentration (IC50) in series [4] stood at 24 µM.

Take `O=C1Nc2ccc(OC(F)(F)F)cc2C(=O)CCc2ccccc21` [Compound 26, 2-(Trifluoromethoxy)-11,12-dihydro-5H-dibenzo-[b,g]azonine-6,13-dione]: in series [1], the gLogD7.4 is on record as more than 3 and the chromatographic logD was 3.1. In series [2], this molecule returned a microsomal CLint of 240 µL/min/mg. The molecule further yielded a microsomal CLint in series [3] of 110 µL/min/mg. For the same molecule, in series [4], the IC50 was 0.0042 µM. The “in vitro selectivity index” value in series [4] (antiplasmodial selectivity, L6 cytotoxicity vs P. falciparum) is given as > 10,000.

As to `O=C1CCc2c(O)cccc2C(=O)Nc2ccccc21` [Compound 35, 10-Hydroxy-11,12-dihydro-5H-dibenzo[b,g]azonine-6,13-dione], in series [1], the chromatographic logD worked out at 1.3. Further, the intrinsic clearance (microsomal CLint) in series [2] is 16 µL/min/mg; in series [3], 60 µL/min/mg. Moreover, the IC50 in series [4] was 5.1 µM.

`O=C1Nc2ccc(C(F)(F)F)cc2C(=O)CCc2ccccc21` [Compound 25, 2-(Trifluoromethyl)-11,12-dihydro-5H-dibenzo[b,g]-azonine-6,13-dione]: in series [1], the chromatographic logD amounted to 3. The microsomal CLint is 240 µL/min/mg in series [2] and 79 µL/min/mg in series [3]. Further, the IC50 in series [4] was determined as 0.0094 µM.

With `N#Cc1ccc2c(c1)C(=O)CCc1ccccc1C(=O)N2` [Compound 22, 6,13-Dioxo-6,11,12,13-tetrahydro-5H-dibenzo[b,g]-azonine-2-carbonitrile], the chromatographic logD in series [1] stood at 2.1. In series [2], this molecule gave an intrinsic metabolic clearance (microsomal CLint) of 23 µL/min/mg. The molecule also showed an intrinsic clearance (microsomal CLint) in series [3] of 20 µL/min/mg. Also, in series [4], the IC50 stood at 0.7 µM and the “fold less potent than 2 (antiplasmodial)” value is 3.7 fold.

For the molecule `N#Cc1ccc2c(c1)CCC(=O)c1ccccc1NC2=O` [Compound 33, 6,13-Dioxo-6,11,12,13-tetrahydro-5H-dibenzo[b,g]-azonine-9-carbonitrile], the chromatographic logD in series [1] turned out to be 2. Further, the intrinsic clearance (microsomal CLint) in series [2] is less than 7 µL/min/mg; in series [3] it was 160 µL/min/mg. Moreover, the IC50 in series [4] turned out to be 0.39 µM.

As for `O=C1Nc2ccc(F)cc2C(=O)CCc2ccccc21` [Compound 24, 2-Fluoro-11,12-dihydro-5H-dibenzo[b,g]azonine-6,13-dione], in series [1], the chromatographic logD is 2.2. Moreover, the microsomal CLint in series [2] came out at 38 µL/min/mg; in series [3], 74 µL/min/mg. Also, the half-maximal inhibitory concentration (IC50) in series [4] turned out to be 0.056 µM.

Turning to `O=C1Nc2ccc(S(F)(F)(F)(F)F)cc2C(=O)CCc2ccccc21` [Compound 27, 2-(Pentafluoro-λ^6-sulfaneyl)-11,12-dihydro-5H-dibenzo[b,g]azonine-6,13-dione], in series [1], the gLogD7.4 is reported as more than 3 and the chromatographic logD was found to be 3.3. Further, the microsomal CLint in series [2] stood at 190 µL/min/mg. In series [3], this molecule had a microsomal CLint of 71 µL/min/mg. Further, in series [4], the half-inhibitory concentration (IC50) was determined as 0.0042 µM.

On to `CO/N=C1\CCc2ccccc2C(=O)Nc2ccccc21` [Compound 11, (E)-13-(Methoxyimino)-5,11,12,13-tetrahydro-6H-dibenzo[b,g]azonin-6-one], for which, in series [1], the chromatographic logD was found to be 2.5. For the same molecule, the intrinsic clearance (microsomal CLint) in series [2] was 11 µL/min/mg; in series [3], 54 µL/min/mg. In series [4], the IC50 was determined as 95 µM.

With `O=C1Nc2ccccc2C(=O)CCCc2ccccc21` [Compound 6, 6,7-Dihydrodibenzo[b,h]azecine-8,14(5H,13H)-dione], the chromatographic logD in series [1] came to 1.9. Further, the figures for the microsomal CLint in series [2] and in series [3] were 14 µL/min/mg and 31 µL/min/mg, respectively. Besides, the half-inhibitory concentration (IC50) in series [4] came out at 0.75 µM. In addition, in series [4], the “fold less potent than 2 (antiplasmodial)” value is 4 fold.

`O=C1CCc2ncccc2C(=O)Nc2ccccc21` [Compound 30, 12,13-Dihydro-5H-benzo[b]pyrido[2,3-g]azonine-5,11(6H)-dione]: the chromatographic logD in series [1] amounted to 0.9. For the same molecule, the microsomal CLint in series [2] stood at 19 µL/min/mg; in series [3], 18 µL/min/mg. In series [4], the concentration for half-maximal inhibition (IC50) was found to be 9.4 µM.

For `O=C1CCc2ccccc2CC(=O)c2ccccc2N1` [Compound 8, 8,13-Dihydrodibenzo[b,f]azecine-6,14(5H,7H)-dione], the chromatographic logD in series [1] stood at 2.1. In series [2], this molecule came in with an intrinsic metabolic clearance (microsomal CLint) of less than 7 µL/min/mg. In addition, the intrinsic metabolic clearance (microsomal CLint) in series [3] turned out to be 18 µL/min/mg. Further, in series [4], the 50% inhibitory concentration (IC50) was found to be 6.2 µM and the “fold less potent than 2 (antiplasmodial)” value is on record as 33 fold.

As to `O=C1Oc2ccccc2C(=O)CCc2ccccc21` [Compound 16, 11,12-Dihydrodibenzo[b,g]oxonine-6,13-dione], in series [1], the chromatographic logD turned out to be 3.7. Moreover, the intrinsic metabolic clearance (microsomal CLint) was found to be 14 µL/min/mg in series [2] and 16 µL/min/mg in series [3]. Moreover, the IC50 in series [4] worked out at 100 µM.

`O=C1Nc2ccccc2C(=NO)CCc2ccccc21` [Compound 10, 13-(Hydroxyimino)-5,11,12,13-tetrahydro-6H-dibenzo[b,g]azonin-6-one]: in series [1], the chromatographic logD was 1.8. The intrinsic clearance (microsomal CLint) in series [2] was determined as 22 µL/min/mg; in series [3], 76 µL/min/mg. Moreover, the IC50 in series [4] is more than 190 µM.

As to `O=C1CCc2ccccc2C(=O)c2ccccc2N1` [Compound 9, 7,8-Dihydro-5H-dibenzo[b,e]azonine-6,13-dione], in series [1], the chromatographic logD worked out at 1.9. Further, the microsomal CLint in series [2] was found to be 7 µL/min/mg; in series [3], 14 µL/min/mg. The IC50 in series [4] came out at 4.6 µM.

For the molecule `CN1C(=O)c2ccccc2CCC(=O)c2ccccc21` [Compound 14, 5-Methyl-11,12-dihydro-5H-dibenzo[b,g]azonine-6,13-dione], in series [1], the chromatographic logD came out at 2.4. For the same molecule, the microsomal CLint came out at 110 µL/min/mg in series [2] and 220 µL/min/mg in series [3]. Also, in series [4], the IC50 stood at 77 µM.

For the molecule `O=C1Nc2ccc(C(=O)N3CCOCC3)cc2C(=O)CCc2ccccc21` [Compound 21, 2-(Morpholine-4-carbonyl)-11,12-dihydro-5H-dibenzo[b,g]azonine-6,13-dione], the chromatographic logD in series [1] stood at 1.3. For the same molecule, the intrinsic metabolic clearance (microsomal CLint) in series [2] came out at 11 µL/min/mg; in series [3], 15 µL/min/mg. Further, the IC50 in series [4] is 7.8 µM.

Regarding `O=C1Nc2ccccc2CCCc2ccccc21` [Compound 13, 5,11,12,13-Tetrahydro-6H-dibenzo[b,g]azonin-6-one], in series [1], the chromatographic logD was 2.6. Also, the intrinsic metabolic clearance (microsomal CLint) in series [2] amounted to 62 µL/min/mg; in series [3], 81 µL/min/mg. Further, the IC50 in series [4] turned out to be 100 µM.

For `O=C(O)c1ccc2c(c1)C(=O)CCc1ccccc1C(=O)N2` [Compound 19, 6,13-Dioxo-6,11,12,13-tetrahydro-5H-dibenzo[b,g]-azonine-2-carboxylic Acid], the chromatographic logD in series [1] was less than 0. Moreover, the results for the intrinsic metabolic clearance (microsomal CLint) in series [2] and in series [3] were 12 µL/min/mg and less than 7 µL/min/mg, respectively. Also, in series [4], the IC50 is 160 µM.

`O=C1Nc2ccccc2C(=O)CCc2cc(O)ccc21` [Compound 34, 9-Hydroxy-11,12-dihydro-5H-dibenzo[b,g]azonine-6,13-dione]: the chromatographic logD in series [1] turned out to be 1.1. In addition, the microsomal CLint turned out to be 61 µL/min/mg in series [2] and 84 µL/min/mg in series [3]. In series [4], the IC50 was 15 µM.

Consider `O=C1Nc2ccccc2C(O)CCc2ccccc21` (stereo not drawn) [Compound 12, 13-hydroxy-5,11,12,13-tetrahydro-6H-dibenzo[b,g]azonin-6-one], for which, in series [1], the chromatographic logD was 1.5. Also, the microsomal CLint in series [2] stood at 11 µL/min/mg; in series [3] it was 27 µL/min/mg. Besides, in series [4], the IC50 was found to be 83 µM.

Broadly, the chromatographic logD is a lipophilicity value derived from retention on a column. A word on the microsomal CLint: it is a measure of how fast metabolising enzymes remove a compound, apart from limits set by blood flow. A high value points to rapid turnover. A word on the IC50: it is the point on the concentration scale where inhibition reaches its midpoint.

The record behind these values is paper PMC10860121 (ACS infectious diseases, 2023).
